# Target: Neuronal acetylcholine receptor; alpha4/beta2 (Rattus norvegicus, UniProt P09483+P12390)
# Experiment: Affinity at alpha4-beta2 nACh receptors in rat brain (minus cerebellum) homogenates.
# Format: tissue-based
# Chain of Neuronal acetylcholine receptor; alpha4/beta2 (P09483 whole entry): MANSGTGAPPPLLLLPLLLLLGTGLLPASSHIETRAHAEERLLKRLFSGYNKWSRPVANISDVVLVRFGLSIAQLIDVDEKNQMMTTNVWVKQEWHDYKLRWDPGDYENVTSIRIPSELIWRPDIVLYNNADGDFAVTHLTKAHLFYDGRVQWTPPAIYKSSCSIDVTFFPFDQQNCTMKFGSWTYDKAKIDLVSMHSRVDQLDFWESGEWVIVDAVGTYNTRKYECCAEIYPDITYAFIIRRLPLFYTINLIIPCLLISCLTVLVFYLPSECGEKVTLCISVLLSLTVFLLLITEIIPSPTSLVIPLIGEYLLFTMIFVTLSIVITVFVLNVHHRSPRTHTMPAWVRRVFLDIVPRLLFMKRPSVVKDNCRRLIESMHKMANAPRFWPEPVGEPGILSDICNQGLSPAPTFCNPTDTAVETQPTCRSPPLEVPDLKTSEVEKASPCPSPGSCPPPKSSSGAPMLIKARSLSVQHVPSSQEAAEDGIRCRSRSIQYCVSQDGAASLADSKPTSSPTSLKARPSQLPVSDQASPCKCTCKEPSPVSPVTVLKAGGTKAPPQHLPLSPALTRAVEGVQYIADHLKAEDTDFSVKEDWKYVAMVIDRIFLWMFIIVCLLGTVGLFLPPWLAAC
# Chain of Neuronal acetylcholine receptor; alpha4/beta2 (P12390 whole entry): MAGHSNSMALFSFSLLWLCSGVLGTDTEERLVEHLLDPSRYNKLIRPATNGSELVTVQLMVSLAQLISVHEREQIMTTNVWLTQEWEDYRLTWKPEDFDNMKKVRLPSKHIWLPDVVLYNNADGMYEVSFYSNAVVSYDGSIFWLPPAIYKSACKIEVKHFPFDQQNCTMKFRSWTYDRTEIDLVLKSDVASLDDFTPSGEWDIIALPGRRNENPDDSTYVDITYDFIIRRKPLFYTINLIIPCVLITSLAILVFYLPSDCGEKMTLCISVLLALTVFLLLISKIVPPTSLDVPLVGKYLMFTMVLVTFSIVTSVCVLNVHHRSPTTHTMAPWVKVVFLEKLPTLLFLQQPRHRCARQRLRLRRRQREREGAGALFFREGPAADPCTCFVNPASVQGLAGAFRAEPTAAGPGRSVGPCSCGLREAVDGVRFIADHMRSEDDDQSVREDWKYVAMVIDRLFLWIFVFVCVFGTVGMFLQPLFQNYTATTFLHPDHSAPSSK
smiles,measurement,value
CN1CCCC1c1cnc2ccccc2c1 (stereo unspecified),Ki,11 nM
CN1CCN=C1Cc1cnc2ccccc2c1,Ki,38 nM
c1ccc(CN2CCCC2c2cccnc2)cc1 (stereo unspecified),Ki,360 nM
COc1ccc(CC2=NCCN2C)cn1,Ki,46 nM
CN1CCN=C1Cc1ccc(Br)nc1,Ki,7.3 nM
CN1CCN=C1Cc1ccc(Cl)nc1,Ki,3.3 nM
CN1CCCC1c1ccc(-c2ccccc2)nc1 (stereo unspecified),Ki,9440 nM
CN1CCN=C1Cc1ccc(-c2ccccc2)nc1,Ki,3260 nM
CN1CCCC1c1ccc(Br)nc1 (stereo unspecified),Ki,0.5 nM
CN1CCCC1c1ccc(Cl)nc1 (stereo unspecified),Ki,0.6 nM
c1cncc(C2=NCCC2)c1 [MYOSMINE],Ki,3300 nM
